Laboratory results from patent US20060128726A1, “Process for preparing novel crystalline forms of (2S)-1-[[(7R)-7-(3,4-dichlorophenyl)-4,7-dihydro-5-methylpyrazolo[1,5]pyrimidine-6-yl]carbonyl]-2-(4-fluorophenyl)pyrrolidine, novel stable forms produced therein and formulations” (priority 2004, published 2006).
In brackets after ≈: the same amount, converted by molar mass.

How the values were obtained:
[1] = slurry conversion of polymorph mixtures (relative thermodynamic stability); format: physicochemical; conditions: mixtures of H2-1 and H2-2 in aqueous ethanol slurries; conversion observed at 5, 25, 50 and 80° C.
aqueous solubility = format: physicochemical; conditions: water; depending on crystalline form
[2] = solid-state stability (light, heat, physical and chemical); format: physicochemical
[3] = biological target: ultrarapidly activating, sustained potassium current (IKur, also known as Kv1.5) (Homo sapiens, UniProt P22460); conditions: cited from earlier work
ultrarapidly activating, sustained potassium current (IKur, also known as Kv1.5), sequence (P22460 whole entry): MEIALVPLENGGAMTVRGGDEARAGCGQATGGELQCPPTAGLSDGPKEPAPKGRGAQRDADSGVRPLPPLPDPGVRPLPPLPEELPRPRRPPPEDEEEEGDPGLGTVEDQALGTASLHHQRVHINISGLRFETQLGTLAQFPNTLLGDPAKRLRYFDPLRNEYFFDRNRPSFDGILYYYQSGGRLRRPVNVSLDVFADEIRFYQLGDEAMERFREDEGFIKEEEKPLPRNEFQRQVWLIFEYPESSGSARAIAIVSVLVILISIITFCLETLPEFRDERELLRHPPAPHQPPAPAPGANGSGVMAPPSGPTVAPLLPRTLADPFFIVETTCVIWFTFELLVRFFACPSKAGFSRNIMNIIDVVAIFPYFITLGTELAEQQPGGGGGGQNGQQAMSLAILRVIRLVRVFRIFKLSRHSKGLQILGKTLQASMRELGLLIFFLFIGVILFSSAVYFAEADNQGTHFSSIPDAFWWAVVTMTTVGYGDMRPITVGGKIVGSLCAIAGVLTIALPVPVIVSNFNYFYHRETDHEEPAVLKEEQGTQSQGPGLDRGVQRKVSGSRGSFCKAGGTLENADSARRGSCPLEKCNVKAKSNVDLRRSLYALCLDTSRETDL

hygroscopicity = format: physicochemical
oral bioavailability = conditions: in vivo

In the case of `CC1=C(C(=O)N2CCC[C@H]2c2ccc(F)cc2)[C@@H](c2ccc(Cl)c(Cl)c2)n2nccc2N1` [H2-2 dihydrate], the “relative thermodynamic stability of polymorphs” value [1] is reported as “thermodynamically more stable than the H2-1 dihydrate”.
In the case of `CC1=C(C(=O)N2CCC[C@H]2c2ccc(F)cc2)[C@@H](c2ccc(Cl)c(Cl)c2)n2nccc2N1` [IKur compound, (2S)-1-[[(7R)-(3,4-dichlorophenyl)-4,7-dihydro-5-methylpyrazolo[1,5-]pyrimidine-6-yl]carbonyl]-2-(4-fluorophenyl)pyrrolidine], the solubility (aqueous solubility) is given as 2 to 4 µg/mL (≈ 4.24 to 8.49 µM), the “sensitivity to light and heat” value ([2]; amorphous form and crystalline forms) is given as “sensitive to light and heat” and the “blocking of IKur (Kv1.5)” value [3] is given as “selective blocker”.
For `CC1=C(C(=O)N2CCC[C@H]2c2ccc(F)cc2)[C@@H](c2ccc(Cl)c(Cl)c2)n2nccc2N1` [N-3 anhydrate], the “solid-state stability (physical and chemical)” value [2] was “satisfactory solid-state stability”, the hygroscopicity (hygroscopicity) was “low hygroscopicity” and the oral bioavailability (oral bioavailability) was “satisfactory oral bioavailability”.
